Converted amounts (≈) assume the structure as drawn.
Columns and labels:
Assay type in all cases: cell-based
S. aureus ATCC 29213 = assay: Antimicrobial susceptibility test (MIC), micro-dilution broth; details: S. aureus ATCC 29213
Description: (§1) Bacterial strains. S. aureus ATCC 29213, E. coli MG1655, E. coli BAA-2340, E. coli BAA-2469, E. coli BAA-2471, E. cloacae BAA-2341, E. cloacae BAA-2468, K. pneumoniae BAA-1705, K. pneumoniae BAA-2342, K. pneumoniae BAA-2470, K. pneumoniae BAA-2472, and K. pneumoniae BAA-2473 were obtained from ATCC. E. coli JW5503 and E. coli JW3596 were obtained from the KEIO Collection. E. cloacae ATCC 29893 was provided by W. van der Donk (UIUC). E. coli AR-0346, E. coli AR-0349, E. coli AR-0493, E. coli AR-0495, and K. pneumoniae AR-0347 were obtained from the CDC and FDA AR Isolate Bank. E. coli F20987, E. coli M66623, E. cloacae S28901.1, K. pneumoniae M14723, K. pneumoniae M67198, K. pneumoniae M67297, K. pneumoniae S20595, K. pneumoniae S47889, A. baumannii W41979, A. baumannii F19521, A. baumannii M13100, and A. baumannii WO22 were obtained from the University of Illinois Chicago Medical School. A. baumannii KB304, A. baumannii KB343, and A. baumannii KB357 were provided by J. Quale.
(§2) Antimicrobial susceptibility tests. Susceptibility testing was performed in biological triplicate, using the micro-dilution broth method as outlined by the Clinical and Laboratory Standards Institute. Bacteria were cultured with cation-adjusted Muller-Hinton broth (Sigma-Aldrich, Cat# 90922) in round-bottom 96-well plates (Corning, Cat# 3788). Human serum (pooled gender, 0.2 μm filtered) was purchased from BioIVT (Hicksville, NY).

E. coli ΔtolC (JW5503) = details: for MIC E. coli ΔtolC: efflux deficient E. coli ΔtolC
Procedure: (§3) The compounds synthesized, shown in Table 1, were evaluated against Gram-positive and Gram-negative reference strains (S. aureus 29213 and E. coli MG1655, respectively), as well as an efflux deficient E. coli strain (ΔtolC, JW5503).
as §1, §2

E. coli MG1655 = assay: Antimicrobial susceptibility test (MIC)
Description: as §1, §2

K. pneumoniae BAA 2472 = assay: microbe, parasite or virus in culture; details: clinical isolate
Procedure: as §3, §1, §2

A. baumannii AR 0033 = assay: microbe, parasite or virus in culture; details: clinical isolate
Procedure: as §2

A. baumannii AR 0273 = assay: microbe, parasite or virus in culture; details: clinical isolate
Procedure: as §2

A. baumannii AR 0299 = assay: microbe, parasite or virus in culture; details: clinical isolate
Procedure: as §2

A. baumannii AR 0313 = assay: microbe, parasite or virus in culture; details: clinical isolate
Procedure: as §2

E. coli AR 0048 = assay: microbe, parasite or virus in culture; details: clinical isolate
Procedure: as §2

E. coli AR 0085 = assay: microbe, parasite or virus in culture; details: clinical isolate
Procedure: as §2

K. pneumoniae AR 0066 = assay: microbe, parasite or virus in culture; details: clinical isolate
Procedure: as §2

K. pneumoniae AR 0113 = assay: microbe, parasite or virus in culture; details: clinical isolate
Procedure: as §2

K. pneumoniae AR 0560 = assay: microbe, parasite or virus in culture; details: clinical isolate
Procedure: as §2

Cc1c(CN(C)C(=O)C=Cc2cnc3c(c2)CC2(CCC(CN)CC2)C(=O)N3)oc2ccccc12 (mixture of isomers) [(±)-9]
MIC S. aureus 29213 (S. aureus ATCC 29213): 0.031 µg/mL
MIC E. coli ΔtolC (E. coli ΔtolC (JW5503)): 0.062 µg/mL
MIC E. coli MG1655 (E. coli MG1655): 16 µg/mL

Cc1c(CN(C)C(=O)/C=C/c2cnc3c(c2)CC(CN)C(=O)N3)oc2ccccc12.Cl (racemic)
MIC S. aureus 29213 (S. aureus ATCC 29213): 0.031 µg/mL
MIC E. coli ΔtolC (E. coli ΔtolC (JW5503)): 0.125 µg/mL
MIC E. coli MG1655 (E. coli MG1655): 8 µg/mL

Cc1c(CN(C)C(=O)/C=C/c2cnc3c(c2)CC(CCN)C(=O)N3)oc2ccccc12.Cl (racemic)
MIC S. aureus 29213 (S. aureus ATCC 29213): 0.016 µg/mL
MIC E. coli ΔtolC (E. coli ΔtolC (JW5503)): 0.062 µg/mL
MIC E. coli MG1655 (E. coli MG1655): 8 µg/mL

Cc1c(CN(C)C(=O)/C=C/c2cnc3c(c2)CCC(CCN)C(=O)N3)oc2ccccc12 (racemic) [(±)-13]
MIC S. aureus 29213 (S. aureus ATCC 29213): 0.062 µg/mL (≈ 0.143 µM)
MIC E. coli ΔtolC (E. coli ΔtolC (JW5503)): 0.125 µg/mL (≈ 0.289 µM)
MIC E. coli MG1655 (E. coli MG1655): 32 µg/mL (≈ 74 µM)

Cc1c(CN(C)C(=O)/C=C/c2cnc3c(c2)CCC(N)C(=O)N3)oc2ccccc12 (racemic) [drawing 87]
MIC S. aureus 29213 (S. aureus ATCC 29213): 0.016 µg/mL (≈ 0.0396 µM)
MIC E. coli ΔtolC (E. coli ΔtolC (JW5503)): 0.031 µg/mL (≈ 0.0766 µM)
MIC E. coli MG1655 (E. coli MG1655): 4 µg/mL (≈ 9.89 µM)

Cc1c(CN(C)C(=O)/C=C/c2cnc3c(c2)CCC(N)C(=O)N3)oc2ccccc12 (racemic) [drawing 108]
MIC S. aureus 29213 (S. aureus ATCC 29213): 0.016 µg/mL (≈ 0.0396 µM)
MIC E. coli ΔtolC (E. coli ΔtolC (JW5503)): 0.031 µg/mL (≈ 0.0766 µM)
MIC E. coli MG1655 (E. coli MG1655): 4 µg/mL (≈ 9.89 µM)

Cc1c(CN(C)C(=O)/C=C/c2cnc3c(c2)CC(N)C(=O)N3)oc2ccccc12.Cl (racemic) [reference compound]
MIC S. aureus 29213 (S. aureus ATCC 29213): 0.03125 µg/mL
MIC E. coli ΔtolC (E. coli ΔtolC (JW5503)): 0.062 µg/mL
MIC E. coli MG1655 (E. coli MG1655): 4 µg/mL

Cc1c(CN(C)C(=O)/C=C/c2ccc3c(c2)CCC(N)C(=O)N3)oc2ccccc12 (single isomer, unassigned) [Isomer 1]
MIC K. pneumoniae BAA 2472 (K. pneumoniae BAA 2472): >32 µg/mL
MIC A. baumannii AR 0033 (A. baumannii AR 0033): >32 µg/mL
MIC A. baumannii AR 0273 (A. baumannii AR 0273): >32 µg/mL
MIC A. baumannii AR 0299 (A. baumannii AR 0299): >32 µg/mL
MIC A. baumannii AR 0313 (A. baumannii AR 0313): >32 µg/mL
MIC E. coli AR 0048 (E. coli AR 0048): >32 µg/mL
MIC E. coli AR 0085 (E. coli AR 0085): >32 µg/mL
MIC K. pneumoniae AR 0066 (K. pneumoniae AR 0066): >32 µg/mL
MIC K. pneumoniae AR 0113 (K. pneumoniae AR 0113): >32 µg/mL
MIC K. pneumoniae AR 0560 (K. pneumoniae AR 0560): >32 µg/mL

Cc1c(CN(C)C(=O)/C=C/c2ccc3c(c2)CCC(N)C(=O)N3)oc2ccccc12 (single isomer, unassigned) [Isomer 2]
MIC K. pneumoniae BAA 2472 (K. pneumoniae BAA 2472): 4 µg/mL (≈ 9.91 µM)
MIC A. baumannii AR 0033 (A. baumannii AR 0033): 2 µg/mL (≈ 4.96 µM)
MIC A. baumannii AR 0273 (A. baumannii AR 0273): 4 µg/mL (≈ 9.91 µM)
MIC A. baumannii AR 0299 (A. baumannii AR 0299): 2 µg/mL (≈ 4.96 µM)
MIC A. baumannii AR 0313 (A. baumannii AR 0313): 4 µg/mL (≈ 9.91 µM)
MIC E. coli AR 0048 (E. coli AR 0048): 4 µg/mL (≈ 9.91 µM)
MIC E. coli AR 0085 (E. coli AR 0085): 2 µg/mL (≈ 4.96 µM)
MIC K. pneumoniae AR 0066 (K. pneumoniae AR 0066): 4 µg/mL (≈ 9.91 µM)
MIC K. pneumoniae AR 0113 (K. pneumoniae AR 0113): 8 µg/mL (≈ 19.8 µM)
MIC K. pneumoniae AR 0560 (K. pneumoniae AR 0560): 4 µg/mL (≈ 9.91 µM)

Cc1c(CN(C)C(=O)/C=C/c2cnc3c(c2)CCC(N)C(=O)N3)oc2ccccc12 (single isomer, unassigned) [drawing 109]
MIC S. aureus 29213 (S. aureus ATCC 29213): 0.125 to 0.250 µg/mL
% @ 1 (in brackets after MIC) (E. coli ΔtolC (JW5503); E. coli ΔTolC, 1 μg/mL): 50%
MIC E. coli ΔtolC (E. coli ΔtolC (JW5503)): > 1 µg/mL
MIC E. coli MG1655 (E. coli MG1655): > 32 µg/mL
% @ 32 (in brackets after MIC) (E. coli MG1655; E. coli MG1655, 32 μg/mL): 20%

Cc1c(CN(C)C(=O)/C=C/c2cnc3c(c2)CCC(N)C(=O)N3)oc2ccccc12 (single isomer, unassigned) [drawing 110]
MIC S. aureus 29213 (S. aureus ATCC 29213): 0.004 to 0.008 µg/mL
% @ 0.016 (in brackets after MIC) (E. coli ΔtolC (JW5503); E. coli ΔTolC, 0.016 μg/mL): 40-95%
MIC E. coli ΔtolC (E. coli ΔtolC (JW5503)): 0.031 µg/mL (≈ 0.0766 µM)
MIC E. coli MG1655 (E. coli MG1655): 2 µg/mL (≈ 4.94 µM)

Cc1c(CN(C)C(=O)/C=C/c2cnc3c(c2)CCC(=O)N3)oc2ccccc12 [drawing 82, reference compound]
MIC S. aureus 29213 (S. aureus ATCC 29213): 0.008 to 0.016 µg/mL
MIC E. coli ΔtolC (E. coli ΔtolC (JW5503)): 0.031 µg/mL (≈ 0.0826 µM)

Cc1c(CN(C)C(=O)/C=C/c2cnc3c(c2)CC2(CNC2)C(=O)N3)oc2ccccc12 [drawing 106]
MIC K. pneumoniae BAA 2472 (K. pneumoniae BAA 2472): 8 µg/mL (≈ 19.2 µM)
MIC A. baumannii AR 0033 (A. baumannii AR 0033): 8 µg/mL (≈ 19.2 µM)
MIC A. baumannii AR 0273 (A. baumannii AR 0273): 16 µg/mL (≈ 38.4 µM)
MIC A. baumannii AR 0299 (A. baumannii AR 0299): 16 µg/mL (≈ 38.4 µM)
MIC A. baumannii AR 0313 (A. baumannii AR 0313): 16 µg/mL (≈ 38.4 µM)
MIC E. coli AR 0048 (E. coli AR 0048): 8 µg/mL (≈ 19.2 µM)
MIC E. coli AR 0085 (E. coli AR 0085): 4 µg/mL (≈ 9.6 µM)
MIC K. pneumoniae AR 0066 (K. pneumoniae AR 0066): 8 µg/mL (≈ 19.2 µM)
MIC K. pneumoniae AR 0113 (K. pneumoniae AR 0113): 16 µg/mL (≈ 38.4 µM)
MIC K. pneumoniae AR 0560 (K. pneumoniae AR 0560): 16 µg/mL (≈ 38.4 µM)
